Structures are written as SMILES. Converted amounts (≈) assume the structure as drawn.

For assay [1], the system named is Staphylococcus aureus ATCC 33591. In words: MIC, broth microdilution, S. aureus ATCC 33591 (MRSA). The class given is cell-based. The conditions noted are these: read-out: minimum inhibitory concentration (MIC). On the procedure: (§1) Antimicrobial Effect: Minimum Inhibitory Concentration (MIC) of a Test Compound Against Isolates of Staphylococcus aureus. The Minimum inhibitory concentration (MIC) of compounds of the presently-disclosed subject matter including a bone active portion (RA) derived from an antimicrobial agent, and free antimicrobial agents, were determined by Ricerca Biosciences LLC (Concord, Ohio) using the standard in vitro broth microdilution assay (CLSI). Two isolates of S. aureus, one resistant to Methicillin (ATCC 33591) and one nonresistant to Methicillin (ATCC 49230) were used for the evaluation. ATCC 49230 is a clinical isolate from a patient with chronic osteomyelitis. Additionally, a quality control isolate (ATCC 29213) was included in the analysis. Briefly, twelve, serial, one-half dilutions of compounds of the presently-disclosed subject matter including a bone active portion (RA) derived from an antimicrobial agent, and free antimicrobial agents, were prepared in 96-well plates in Mueller Hinton Broth (MHB). The highest concentration of each compound used was 64 μg/mL. Bacterial suspensions were prepared and added to each well at a concentration of approximately 5×10^5 colony-forming-units per milliliter. The inoculated plates were incubated for 16-20 h at 35±1° C. At the completion of incubation, the wells of each plate were evaluated visually for the presence of bacterial growth. […]
(In general: Broth dilution looks for growth in wells or tubes with falling amounts of substance.)

Assay [2] relates to Staphylococcus aureus ATCC 29213. In words: MIC, broth microdilution, S. aureus ATCC 29213 (QC strain). It is filed as cell-based. The settings on record: ATCC29213, read-out: minimum inhibitory concentration (MIC). On the procedure: as §1
Assay [3] shares this test system. The settings on record: ATCC 29213, QC strain, acceptance range; cited from earlier work.
For assay [4], the system named is Staphylococcus aureus ATCC 49230. As to the kind of experiment: MIC, broth microdilution, S. aureus ATCC 49230. It is filed as cell-based. The conditions noted are these: ATCC49230, read-out: minimum inhibitory concentration (MIC). On the procedure: as §1

As to `CN[C@H](CC(C)C)C(=O)N[C@H]1C(=O)N[C@@H](CC(N)=O)C(=O)N[C@H]2C(=O)N[C@H]3C(=O)N[C@H](C(=O)N[C@H](C(=O)O)c4cc(O)cc(O)c4-c4cc3ccc4O)[C@H](O)c3ccc(c(Cl)c3)Oc3cc2cc(c3O[C@@H]2O[C@H](CO)[C@@H](O)[C@H](O)[C@H]2O[C@H]2C[C@](C)(N)[C@H](O)[C@H](C)O2)Oc2ccc(cc2Cl)[C@H]1O` [vancomycin], the MIC in assay [1], in assay [2] and in assay [4] was 1 µg/mL (≈ 0.69 µM) in each case. In addition, in assay [3], the “acceptable vancomycin MIC range” value is reported as “^cQC strain: Acceptable vancomycin MIC range: 0.5-2 μg/mL”.

Source of the values: patent US8071575B2, “Methods and compounds for the targeted delivery of agents to bone for interaction therewith” (priority 2007, dated 2011).
